How the values were obtained:
primary melanocytes = primary melanocytes with ultraviolet (UV) radiation-induced DNA damage; Thompson B. C. et al. (2014); cited from earlier work
[1] = system: Eker rat uterine leiomyoma cell line ELT-3; test: Colony formation assay; format: cell-based; conditions: ELT-3 cells, 3 days treatment then 7 to 10 days, vs control group, p<0.05
Procedure: (§1) Eker rat uterine leiomyoma cell line ELT-3 was purchased from the American Type Culture Collection (ATCC, Manassas, Va., USA). The ELT-3 cells were grown in a 6 cm Petri dish containing Dulbecco's Modified Eagle's Medium (DMEM)/F12 [1:1 (v/v)] (Cassion, Cat. no. DFP29) supplemented with 10% fetal bovine serum (FBS, Corning Inc., Cat. no. 35-010-CV) and 1% antibiotic-antimycotic (Corning Inc., Cat. no. 30-004-CI). The ELT-3 cells were cultivated in an incubator at 37° C. with 5% CO2. Medium change was performed every two to three days. Cell passage was performed when the cultured cells reached 80% to 90% of confluence.
First, the ELT-3 cells prepared in section 1 of “General Experimental Materials” were divided into 3 groups, including a control group, and two experimental groups (i.e., experimental groups 1 and 2). Each group of the ELT-3 cells was seeded at a concentration of 5×10^2 cells/well into a respective well of 6-well culture plates containing 2 mL of DMEM/F12 supplemented with 10% FBS and 1% penicillin-streptomycin, followed by cultivation in an incubator (37° C., 5% CO2) for 24 hours.
(§2) Next, medium change was performed by adding a fresh culture medium supplemented with 1% FBS into the 6-well culture plate. […]
(§3) The data thus obtained were analyzed according to the procedures as described in section 1 of “General Procedures”.

[2] = system: alpha-smooth muscle actin (α-SMA); test: Western blotting of α-SMA in ELT-3 cells; format: cell-based, rat; conditions: 72 hours, normalized to GAPDH, vs control group
Procedure: (§4) First, the ELT-3 cells prepared in section 1 of “General Experimental Materials” were divided into 3 groups, including a control group, and two experimental groups (i.e., experimental groups 1 and 2). Each group of the ELT-3 cells was seeded at a concentration of 2×10^5 cells/well into a 10-cm Petri dish containing 2 mL of DMEM/F12 supplemented with 10% FBS and 1% penicillin-streptomycin, followed by cultivation in an incubator (37° C., 5% CO2) overnight.
(§5) Next, medium change was performed by adding a fresh culture medium supplemented with 1% FBS into the 10-cm Petri dish, followed by cultivation in an incubator (37° C., 5% CO2) for 24 hours. […]
(§6) After cultivation in an incubator (37° C., 5% CO2) for 72 hours, each of the cell cultures was mixed with 100 μL of a RIPA lysis buffer (BIOMAN, Cat. no. 20121701) containing protease inhibitor cocktail (Roche, Cat. no. 4693159001). […] The protein concentration in the total protein sample was determined using bicinchoninic acid (BCA) assay kit (T-Pro Biotechnology, Cat. no. JB04-D001) in accordance with the manufacturer's instructions. […]
(§7) Subsequently, ImageJ software was used for semi-quantitatively calculating the corresponding protein expression level. […]
(§8) The relative expression level was calculated using the following Equation (1): […]
as §3

fibronectin = test: Western blotting of ECM protein fibronectin in ELT-3 cells; format: cell-based, rat; conditions: 72 hours, normalized to GAPDH, vs control group
Procedure: as §4, §5, §6, §7, §8, §3

[3] = system: collagen type I alpha 1 chain (COL1A1); test: Western blotting of COL1A1 in ELT-3 cells; format: cell-based, rat; conditions: 72 hours, normalized to GAPDH, vs control group
Procedure: as §4, §5, §6, §7, §8, §3

[4] = system: Eker rat uterine leiomyoma cell line ELT-3; test: Crystal violet staining assay (area density, viable cells); format: cell-based; conditions: ELT-3 cells, 48 hours, vs control group, p<0.001
Procedure: as §1
First, the ELT-3 cells prepared in section 1 of “General Experimental Materials” were divided into 3 groups, including a control group, and two experimental groups (i.e., experimental groups 1 and 2). Each group of the ELT-3 cells was seeded at a concentration of 1×10^5 cells/well into a respective well of 6-well culture plates containing 2 mL of DMEM/F12 supplemented with 10% FBS and 1% penicillin-streptomycin, followed by cultivation in an incubator (37° C., 5% CO2) for 24 hours.
as §2, §3

[5] = 20 mM nicotinamide (experimental group 1)
[6] = 50 mM nicotinamide (experimental group 2)

NC(=O)c1cccnc1 [nicotinamide]
DNA repair (primary melanocytes): enhances DNA repair | colony density [1, 5]: significant decrease | colony density [1, 6]: significant decrease | relative expression level of α-SMA ([2]; 20 mM nicotinamide): significantly decreased | relative expression level of α-SMA ([2]; 50 mM nicotinamide): significantly decreased | relative expression level of fibronectin (fibronectin; 20 mM nicotinamide): significantly decreased | relative expression level of fibronectin (fibronectin; 50 mM nicotinamide): significantly decreased | relative expression level of COL1A1 ([3]; 20 mM nicotinamide): significantly decreased | relative expression level of COL1A1 ([3]; 50 mM nicotinamide): significantly decreased | area density [4, 5]: significant decrease | area density [4, 6]: significant decrease

Reference: US20250177370A1, “METHOD FOR ALLEVIATING UTERINE LEIOMYOMA USING NICOTINAMIDE” (TAIPEI MEDICAL UNIVERSITY, priority 2023, published 2025)
